# Experiments:
# Type in all cases: functional
# Staphylococcus aureus [1] = experiment: Antibacterial activity against penicillin-resistant Staphylococcus aureus ATCC 31007 assessed as inhibition of bacterial growth measured after 20 hrs by two-fold microdilution assay
# Pseudomonas aeruginosa = experiment: Antibacterial activity against penicillin-susceptible Pseudomonas aeruginosa ATCC 27853 assessed as inhibition of bacterial growth measured after 20 hrs by two-fold microdilution assay
# Streptococcus pyogenes [2] = experiment: Antibacterial activity against erythromycin-resistant Streptococcus pyogenes assessed as inhibition of bacterial growth measured after 20 hrs by two-fold microdilution assay
# Bacillus pumilus = experiment: Antibacterial activity against penicillin-susceptible Bacillus pumilus CMCC63202 assessed as inhibition of bacterial growth measured after 20 hrs by two-fold microdilution assay
# Bacillus subtilis = experiment: Antibacterial activity against penicillin-susceptible Bacillus subtilis ATCC 9372 assessed as inhibition of bacterial growth measured after 20 hrs by two-fold microdilution assay
# Staphylococcus aureus [3] = experiment: Antibacterial activity against erythromycin-susceptible Staphylococcus aureus ATCC 25923 assessed as inhibition of bacterial growth measured after 20 hrs by two-fold microdilution assay
# [4] = test system: Staphylococcus epidermidis; experiment: Antibacterial activity against penicillin-resistant Staphylococcus epidermidis assessed as inhibition of bacterial growth measured after 20 hrs by two-fold microdilution assay
# Staphylococcus aureus [5] = experiment: Antibacterial activity against clinical isolate Staphylococcus aureus C1 assessed as inhibition of bacterial growth measured after 20 hrs by two-fold microdilution assay
# Staphylococcus aureus [6] = experiment: Antibacterial activity against methicillin-resistant Staphylococcus aureus ATCC43300 assessed as inhibition of bacterial growth measured after 20 hrs by two-fold microdilution assay
# Streptococcus pyogenes [7] = experiment: Antibacterial activity against erythromycin-susceptible Streptococcus pyogenes assessed as inhibition of bacterial growth measured after 20 hrs by two-fold microdilution assay
# Escherichia coli = experiment: Antibacterial activity against penicillin-susceptible Escherichia coli ATCC 25922 assessed as inhibition of bacterial growth measured after 20 hrs by two-fold microdilution assay
# Enterococcus faecium [8] = experiment: Antibacterial activity against Vancomycin-susceptible Enterococcus faecium ATCC 19434 assessed as inhibition of bacterial growth measured after 20 hrs by two-fold microdilution assay
# Enterococcus faecalis [9] = experiment: Antibacterial activity against Vancomycin-susceptible Enterococcus faecalis ATCC 29212 assessed as inhibition of bacterial growth measured after 20 hrs by two-fold microdilution assay
# Enterococcus faecium [10] = experiment: Antibacterial activity against Vancomycin-resistant Enterococcus faecium ATCC 51559 assessed as inhibition of bacterial growth measured after 20 hrs by two-fold microdilution assay
# Enterococcus faecalis [11] = experiment: Antibacterial activity against Vancomycin-resistant Enterococcus faecalis ATCC 51299 assessed as inhibition of bacterial growth measured after 20 hrs by two-fold microdilution assay
SMILES,MIC (Staphylococcus aureus [1]),MIC (Pseudomonas aeruginosa),MIC (Streptococcus pyogenes [2]),MIC (Bacillus pumilus),MIC (Bacillus subtilis),MIC (Staphylococcus aureus [3]),MIC [4],MIC (Staphylococcus aureus [5]),MIC (Staphylococcus aureus [6]),MIC (Streptococcus pyogenes [7]),MIC (Escherichia coli),MIC (Enterococcus faecium [8]),MIC (Enterococcus faecalis [9]),MIC (Enterococcus faecium [10]),MIC (Enterococcus faecalis [11])
Cc1ccc2c[n+](C)c3ccc(-c4ccc5ccn(C)c5c4)cc3c2c1.[Cl-],> 64 µg/mL,> 64 µg/mL,4 µg/mL,16 µg/mL,2 µg/mL,4 µg/mL,> 64 µg/mL,8 µg/mL,32 µg/mL,4 µg/mL,> 64 µg/mL,–,–,–,–
CCCCCn1ccc2ccc(-c3ccc4c(c3)c3c(C)cccc3c[n+]4C)cc21.[Cl-],4 µg/mL,> 64 µg/mL,16 µg/mL,4 µg/mL,2 µg/mL,2 µg/mL,8 µg/mL,2 µg/mL,2 µg/mL,16 µg/mL,> 64 µg/mL,–,–,–,–
Cc1ccc2c[n+](C)c3ccc(-c4ccc5ccn(CC(C)C)c5c4)cc3c2c1.[Cl-],8 µg/mL,> 64 µg/mL,8 µg/mL,4 µg/mL,4 µg/mL,2 µg/mL,16 µg/mL,4 µg/mL,4 µg/mL,4 µg/mL,> 64 µg/mL,–,–,–,–
CCCCCn1ccc2ccc(-c3ccc4c(c3)c3cc(C)ccc3c[n+]4C)cc21.[Cl-],8 µg/mL,> 64 µg/mL,16 µg/mL,8 µg/mL,4 µg/mL,2 µg/mL,8 µg/mL,4 µg/mL,4 µg/mL,8 µg/mL,> 64 µg/mL,–,–,–,–
O=C(O)c1cn(C2CC2)c2cc(N3CCNCC3)c(F)cc2c1=O [CIPROFLOXACIN],> 64 µg/mL,–,–,–,4 µg/mL,4 µg/mL,> 64 µg/mL,–,–,–,–,> 64 µg/mL,32 µg/mL,> 64 µg/mL,> 64 µg/mL
C[n+]1cc2ccccc2c2cc(-c3nc4ccccc4s3)ccc21.[Cl-],> 64 µg/mL,> 64 µg/mL,–,> 64 µg/mL,> 64 µg/mL,> 64 µg/mL,> 64 µg/mL,> 64 µg/mL,> 64 µg/mL,> 64 µg/mL,> 64 µg/mL,–,–,–,–
Cc1ccc2c[n+](C)c3ccc(-c4nc5ccccc5s4)cc3c2c1.[Cl-],> 64 µg/mL,> 64 µg/mL,4 µg/mL,4 µg/mL,1 µg/mL,16 µg/mL,> 64 µg/mL,> 64 µg/mL,> 64 µg/mL,4 µg/mL,> 64 µg/mL,–,–,–,–
Cc1cccc2c[n+](C)c3ccc(-c4ccc5ccn(Cc6ccc(OC(F)(F)F)cc6)c5c4)cc3c12.[Cl-],8 µg/mL,–,16 µg/mL,32 µg/mL,8 µg/mL,2 µg/mL,8 µg/mL,8 µg/mL,16 µg/mL,16 µg/mL,> 64 µg/mL,4 µg/mL,8 µg/mL,4 µg/mL,8 µg/mL
Cc1cccc2c1c[n+](C)c1ccc(-c3nc4ccccc4s3)cc21.[Cl-],> 64 µg/mL,> 64 µg/mL,64 µg/mL,> 64 µg/mL,> 64 µg/mL,16 µg/mL,> 64 µg/mL,> 64 µg/mL,> 64 µg/mL,32 µg/mL,> 64 µg/mL,–,–,–,–
CCn1ccc2ccc(-c3ccc4c(c3)c3c(C)cccc3c[n+]4C)cc21.[Cl-],32 µg/mL,> 64 µg/mL,8 µg/mL,16 µg/mL,4 µg/mL,2 µg/mL,16 µg/mL,8 µg/mL,8 µg/mL,8 µg/mL,> 64 µg/mL,–,–,–,–
COc1ccc2c[n+](C)c3ccc(-c4nc5ccccc5s4)cc3c2c1.[Cl-],> 64 µg/mL,> 64 µg/mL,–,> 64 µg/mL,> 64 µg/mL,> 64 µg/mL,> 64 µg/mL,> 64 µg/mL,> 64 µg/mL,> 64 µg/mL,> 64 µg/mL,–,–,–,–
Cc1cccc2c[n+](C)c3ccc(-c4ccc5ccn(CC(C)C)c5c4)cc3c12.[Cl-],8 µg/mL,> 64 µg/mL,16 µg/mL,8 µg/mL,4 µg/mL,2 µg/mL,8 µg/mL,4 µg/mL,4 µg/mL,8 µg/mL,> 64 µg/mL,–,–,–,–
CCCn1ccc2ccc(-c3ccc4c(c3)c3cc(C)ccc3c[n+]4C)cc21.[Cl-],> 64 µg/mL,> 64 µg/mL,32 µg/mL,> 64 µg/mL,64 µg/mL,16 µg/mL,> 64 µg/mL,32 µg/mL,64 µg/mL,> 64 µg/mL,> 64 µg/mL,–,–,–,–
Cc1cccc2c[n+](C)c3ccc(-c4ccc5ccn(C)c5c4)cc3c12.[Cl-],32 µg/mL,> 64 µg/mL,4 µg/mL,8 µg/mL,1 µg/mL,2 µg/mL,16 µg/mL,8 µg/mL,8 µg/mL,8 µg/mL,> 64 µg/mL,–,–,–,–
CN[C@H](CC(C)C)C(=O)N[C@H]1C(=O)N[C@@H](CC(N)=O)C(=O)N[C@H]2C(=O)N[C@H]3C(=O)N[C@H](C(=O)N[C@H](C(=O)O)c4cc(O)cc(O)c4-c4cc3ccc4O)[C@H](O)c3ccc(c(Cl)c3)Oc3cc2cc(c3O[C@@H]2O[C@H](CO)[C@@H](O)[C@H](O)[C@H]2O[C@H]2C[C@](C)(N)[C@H](O)[C@H](C)O2)Oc2ccc(cc2Cl)[C@H]1O [VANCOMYCIN],–,–,–,–,–,–,–,–,–,–,–,–,2 µg/mL,> 64 µg/mL,> 64 µg/mL
Cc1ccc2c(c1)c[n+](C)c1ccc(-c3nc4ccccc4s3)cc21.[Cl-],> 64 µg/mL,> 64 µg/mL,16 µg/mL,32 µg/mL,4 µg/mL,32 µg/mL,> 64 µg/mL,> 64 µg/mL,> 64 µg/mL,16 µg/mL,> 64 µg/mL,–,–,–,–
COc1ccc2c(c1)c[n+](C)c1ccc(-c3nc4ccccc4s3)cc21.[Cl-],> 64 µg/mL,> 64 µg/mL,–,> 64 µg/mL,> 64 µg/mL,> 64 µg/mL,> 64 µg/mL,> 64 µg/mL,> 64 µg/mL,> 64 µg/mL,> 64 µg/mL,–,–,–,–

# From ChEMBL document CHEMBL4828726, “Modification of 5-methylphenanthridium from benzothiazoles to indoles as potent FtsZ inhibitors: Broadening the antibacterial spectrum toward vancomycin-resistant enterococci” (Eur J Med Chem, 2021)
